Assay results as given in ChEMBL document CHEMBL3352468, “Synthesis and receptor binding in trans-CD ring-fused A-CD estrogens: comparison with the cis-fused isomers” (Bioorg Med Chem Lett, 2014).

Assays:
[1] = molecular target: Estrogen receptor beta (Homo sapiens) (UniProt Q92731); assay: Binding affinity to ERbeta (unknown origin) relative to estradiol
Homo sapiens = species on record: Homo sapiens; assay: Selectivity ratio of RBA for ERbeta (unknown origin) to RBA for ERalpha (unknown origin)

Chain of Estrogen receptor beta (Homo sapiens) (Q92731 whole entry): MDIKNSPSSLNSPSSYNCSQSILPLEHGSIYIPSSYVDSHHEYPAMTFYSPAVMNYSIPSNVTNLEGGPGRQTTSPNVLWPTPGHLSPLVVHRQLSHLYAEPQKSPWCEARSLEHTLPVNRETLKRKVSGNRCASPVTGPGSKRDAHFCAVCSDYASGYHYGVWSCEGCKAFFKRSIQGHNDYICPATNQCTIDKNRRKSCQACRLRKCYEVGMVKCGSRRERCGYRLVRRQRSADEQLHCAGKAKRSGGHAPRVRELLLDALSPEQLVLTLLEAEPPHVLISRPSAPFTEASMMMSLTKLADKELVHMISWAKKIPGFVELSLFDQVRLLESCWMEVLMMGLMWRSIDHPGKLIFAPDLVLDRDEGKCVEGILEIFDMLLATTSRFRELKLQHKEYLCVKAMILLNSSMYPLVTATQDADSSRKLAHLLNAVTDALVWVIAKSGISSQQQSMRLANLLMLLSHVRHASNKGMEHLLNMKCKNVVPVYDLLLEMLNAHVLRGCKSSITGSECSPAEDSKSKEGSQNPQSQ

relative binding affinity (RBA) [1] | Selectivity ratio (Homo sapiens) | SMILES
118 | 2 | C[C@]12CC=C(c3ccc(O)cc3Cl)C[C@H]1CC[C@@H]2O
0.022 | 5.5 | COc1cc(O)ccc1C1=CC[C@@]2(C)[C@H](CC[C@@H]2O)C1
33.6 | 11.9 | Cc1cc(O)ccc1[C@H]1CC[C@@]2(C)[C@H](CC[C@@H]2O)C1
149 | 3 | C[C@]12CC=C(c3ccc(O)c(F)c3Cl)C[C@H]1CC[C@@H]2O
0.226 | 2.8 | Cc1c([C@H]2CC[C@@]3(C)[C@@H](CC[C@@H]3O)C2)cc(F)c(O)c1F
174 | 1.4 | C[C@]12CC=C(c3ccc(O)cc3C(F)(F)F)C[C@H]1CC[C@@H]2O
6 | 1.8 | C[C@]12CC=C(c3cc(F)c(O)c(F)c3Cl)C[C@H]1CC[C@@H]2O
0.029 | 4.8 | COc1cc(O)ccc1C1=CC[C@@]2(C)[C@@H](CC[C@@H]2O)C1
0.076 | 0.8 | C[C@]12CC=C(c3cc(F)c(O)c(F)c3F)C[C@@H]1CC[C@@H]2O
6.8 | 17 | C[C@]12CC=C(c3ccc(O)cc3)C[C@H]1CC[C@@H]2O
1.73 | 9.3 | C[C@]12CC[C@H](c3cc(F)c(O)c(F)c3F)C[C@H]1CC[C@@H]2O
6.84 | 4.1 | C[C@]12CC[C@H](c3ccc(O)c(F)c3)C[C@@H]1CC[C@@H]2O
38 | 1.7 | C[C@]12CC=C(c3ccc(O)cc3F)C[C@@H]1CC[C@@H]2O
49 | 11 | C[C@]12CC=C(c3ccc(O)cc3F)C[C@H]1CC[C@@H]2O
14.1 | 1.5 | C[C@]12CC=C(c3ccc(O)cc3Cl)C[C@@H]1CC[C@@H]2O
7.3 | 7.9 | C[C@]12CC[C@H](c3ccc(O)c(F)c3F)C[C@@H]1CC[C@@H]2O
21.5 | 14.6 | C[C@]12CC[C@H](c3ccc(O)cc3)C[C@H]1CC[C@@H]2O

relative binding affinity (RBA) [1] | Selectivity ratio (Homo sapiens) | SMILES
8.7 | 8.4 | C[C@]12CC[C@H](c3ccc(O)c(F)c3)C[C@H]1CC[C@@H]2O
136 | 5 | C[C@]12CC[C@H](c3ccc(O)cc3F)C[C@H]1CC[C@@H]2O
17.3 | 4.7 | C[C@]12CC=C(c3ccc(O)cc3)C[C@@H]1CC[C@@H]2O
55 | 18.3 | C[C@]12CC=C(c3ccc(O)c(Cl)c3Cl)C[C@H]1CC[C@@H]2O
42.8 | 9.3 | C[C@]12CC[C@H](c3ccc(O)c(F)c3F)C[C@H]1CC[C@@H]2O
2.7 | 6.1 | C[C@]12CC=C(c3cc(F)c(O)cc3F)C[C@H]1CC[C@@H]2O
0.037 | 3.7 | COc1cc(O)ccc1[C@H]1CC[C@@]2(C)[C@@H](CC[C@@H]2O)C1
0.097 | 3.3 | C[C@]12CC[C@H](c3cc(F)c(O)c(F)c3F)C[C@@H]1CC[C@@H]2O
4.9 | 1 | C[C@]12CC[C@H](c3ccc(O)cc3C(F)(F)F)C[C@@H]1CC[C@@H]2O
13.6 | 3.2 | C[C@]12CC[C@H](c3ccc(O)cc3F)C[C@@H]1CC[C@@H]2O
5.35 | 7.1 | Cc1c([C@H]2CC[C@@]3(C)[C@H](CC[C@@H]3O)C2)cc(F)c(O)c1F
1.3 | 2.8 | Cc1cc(O)ccc1[C@H]1CC[C@@]2(C)[C@@H](CC[C@@H]2O)C1
10 | 4.2 | C[C@]12CC[C@H](c3ccc(O)cc3)C[C@@H]1CC[C@@H]2O
0.15 | 4.1 | C[C@]12CC[C@H](c3ccc(O)cc3O)C[C@@H]1CC[C@@H]2O
3.97 | 15.3 | C[C@]12CC[C@H](c3ccc(O)cc3O)C[C@H]1CC[C@@H]2O
0.123 | 7.7 | COc1cc(O)ccc1[C@H]1CC[C@@]2(C)[C@H](CC[C@@H]2O)C1
